The numbers were not newly measured in patent publication US6017948A, “Water-miscible pharmaceutical compositions” (Supergen, Inc., priority 1998, dated 2000), which cites them from elsewhere.

Structures are written as SMILES.

In series [1] the test system is animals. The note with it: chronic high doses (more than 100 mg/kg).
Series [2] deals with tubulin polymer.
The test system of series [3] is breast cancer. The following applies: single-agent phase II.
Series [4] has as its system previously untreated non-small-cell lung cancer. The following applies: single-agent phase II.
Series [5] relates to head and neck cancer. The note with it: single-agent phase II.
The test system of series [6] is refractory ovarian cancer. The following applies: single-agent phase II.

Regarding `CCCCC(CC)COC(=O)c1ccccc1C(=O)OCC(CC)CCCC` (stereo not drawn) [DEHP, diethylhexylphthalate], in series [1], the toxic effects result was “growth retardation, liver weight increase, liver damage, testicular atrophy, teratogenicity, and carcinogenicity”.
On to `CC(=O)O[C@H]1C(=O)[C@@]2(C)[C@H]([C@H](OC(=O)c3ccccc3)[C@]3(O)C[C@H](OC(=O)[C@H](O)[C@@H](NC(=O)c4ccccc4)c4ccccc4)C(C)=C1C3(C)C)[C@]1(OC(C)=O)CO[C@@H]1C[C@@H]2O` [paclitaxel], for which the “effect on tubulin polymer / microtubule assembly” value in series [2] is “stabilizes the tubulin polymer and promotes microtubule assembly”. In addition, the “response rates (complete and partial)” value in series [3], in series [4], in series [5] and in series [6] was “Encouraging response rates” each time.
